The target in test [1] is T1, MTHFD1 recombinant human enzyme (Homo sapiens, UniProt P11586).
T1 sequence (P11586 2-291 limits assumed): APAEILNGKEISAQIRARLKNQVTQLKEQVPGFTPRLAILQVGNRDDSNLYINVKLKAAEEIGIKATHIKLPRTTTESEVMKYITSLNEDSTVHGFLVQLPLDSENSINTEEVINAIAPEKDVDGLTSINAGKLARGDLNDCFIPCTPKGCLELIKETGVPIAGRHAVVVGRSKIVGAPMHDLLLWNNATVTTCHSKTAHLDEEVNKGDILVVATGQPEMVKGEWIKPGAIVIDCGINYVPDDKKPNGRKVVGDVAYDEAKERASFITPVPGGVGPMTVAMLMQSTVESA
Description: MTHFD1 inhibition assay (NAD(P)H-Glo luminescence). The conditions noted are these: MTHFD1 IC50, recombinant human enzyme 200 nM, NADP, band.

The target in test [2] is T2, MTHFD2 recombinant human enzyme (Homo sapiens, UniProt P13995).
T2 sequence (P13995 36-350): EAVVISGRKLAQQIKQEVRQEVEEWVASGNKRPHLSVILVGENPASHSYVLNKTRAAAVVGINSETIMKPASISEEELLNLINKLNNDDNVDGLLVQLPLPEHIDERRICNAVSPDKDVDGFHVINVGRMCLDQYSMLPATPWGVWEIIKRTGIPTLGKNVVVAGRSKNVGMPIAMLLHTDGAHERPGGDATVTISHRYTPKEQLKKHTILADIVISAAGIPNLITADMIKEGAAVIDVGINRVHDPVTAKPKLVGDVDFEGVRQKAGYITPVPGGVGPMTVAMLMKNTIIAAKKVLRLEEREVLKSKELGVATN
Kind of test: MTHFD2 inhibition assay (NAD(P)H-Glo luminescence). The conditions noted are these: for MTHFD1/MTHFD2 IC50 ratio: selectivity of MTHFD2 inhibition over MTHFD1, band.

In a further test the test system is human CD4+ T cells. Description: Human CD4+ T-cell proliferation assay (CFSE, CD3/28 beads). As to conditions: read-out: Proliferation IC50.

The source of these data is patent publication US12662489B2 (Sitryx Therapeutics Limited, priority 2023, dated 2026).

On to `CCOc1cc(C(=O)N2CCc3c(c(=O)oc4c(C)c(N5CCN(C)[C@@H](COC)C5)cc(C)c34)C2)c(F)cc1C(=O)NS(=O)(=O)N1C2CCC1CC2` [Example 218, (R)-N-((7-azabicyclo[2.2.1]heptan-7-yl)sulfonyl)-2-ethoxy-5-fluoro-4-(8-(3-(methoxymethyl)-4-methylpiperazin-1-yl)-7,10-dimethyl-5-oxo-1,3,4,5-tetrahydro-2H-chromeno[3,4-c]pyridine-3-carbonyl)benzamide], for which the IC50 in test [1] was in the range of 100 to 1000 nM; in test [2], 10 to 100 nM; in the test on human CD4+ T cells it was 30 to 100 nM. In addition, the “MTHFD1/MTHFD2 IC50 ratio” value in test [2] was “H (>9.0 to 30)”.
`COC[C@H]1CN(c2cc(C)c3c4c(c(=O)oc3c2C)CN(C(=O)c2cc(OC)c(C(=O)NS(=O)(=O)N3CCCC3)cc2Cl)CC4)CCN1C` [Example 329, (R)-5-chloro-2-methoxy-4-(8-(3-(methoxymethyl)-4-methylpiperazin-1-yl)-7,10-dimethyl-5-oxo-1,3,4,5-tetrahydro-2H-chromeno[3,4-c]pyridine-3-carbonyl)-N-(pyrrolidin-1-ylsulfonyl)benzamide]: the IC50 is 1000 to 5000 nM in test [1], 1 to 10 nM in test [2] and 100 to 1000 nM with human CD4+ T cells. Besides, in test [2], the “MTHFD1/MTHFD2 IC50 ratio” value was “J (>30)”.
On to `COC[C@H]1CN(c2cc(C)c3c4c(c(=O)oc3c2C)CN(C(=O)c2cc(F)c(C(=O)NS(=O)(=O)N3CCCC3)cc2OC)CC4)CCN1C` [Example 266, (R)-2-fluoro-5-methoxy-4-(8-(3-(methoxymethyl)-4-methylpiperazin-1-yl)-7,10-dimethyl-5-oxo-1,3,4,5-tetrahydro-2H-chromeno[3,4-c]pyridine-3-carbonyl)-N-(pyrrolidin-1-ylsulfonyl)benzamide], for which the IC50 is 100 to 1000 nM in test [1], 1 to 10 nM in test [2] and 1000 to 5000 nM in the test with human CD4+ T cells. In addition, the “MTHFD1/MTHFD2 IC50 ratio” value in test [2] is “J (>30)”.
For the molecule `COC[C@H]1CN(c2cc(C)c3c4c(c(=O)oc3c2C)CN(C(=O)c2cc(N(C)C)c(C(=O)NS(=O)(=O)N3CCC[C@H]3COC)cc2F)CC4)CCN1C` [Example 312, 2-(dimethylamino)-5-fluoro-4-(8-((R)-3-(methoxymethyl)-4-methylpiperazin-1-yl)-7,10-dimethyl-5-oxo-1,3,4,5-tetrahydro-2H-chromeno[3,4-c]pyridine-3-carbonyl)-N-(((S)-2-(methoxymethyl)pyrrolidin-1-yl)sulfonyl)benzamide], the IC50 fell in the range of 100 to 1000 nM in test [1], 1 to 10 nM in test [2] and 10 to 30 nM in the test with human CD4+ T cells. Also, in test [2], the “MTHFD1/MTHFD2 IC50 ratio” value is listed as “J (>30)”.
The matching figures for `COC[C@H]1CN(c2cc(C)c3c4c(c(=O)oc3c2C)CN(C(=O)c2cc(N(C)C)c(C(=O)NS(=O)(=O)N3CCC[C@@H]3COC)cc2F)CC4)CCN1C` [Example 311, 2-(dimethylamino)-5-fluoro-4-(8-((R)-3-(methoxymethyl)-4-methylpiperazin-1-yl)-7,10-dimethyl-5-oxo-1,3,4,5-tetrahydro-2H-chromeno[3,4-c]pyridine-3-carbonyl)-N-(((R)-2-(methoxymethyl)pyrrolidin-1-yl)sulfonyl)benzamide]: 1000 to 5000 nM, 1 to 10 nM, 1 to 10 nM and “J (>30)”.
Taken in the same sequence, the figures for `COC[C@H]1CN(c2cc(C)c3c4c(c(=O)oc3c2C)CN(C(=O)c2cc(OC3CC3)c(C(=O)NS(=O)(=O)N3CC5CC5C3)cc2F)CC4)CCN1C` (stereo partly drawn) [Example 264, N-((3-azabicyclo[3.1.0]hexan-3-yl)sulfonyl)-2-cyclopropoxy-5-fluoro-4-(8-((R)-3-(methoxymethyl)-4-methylpiperazin-1-yl)-7,10-dimethyl-5-oxo-1,3,4,5-tetrahydro-2H-chromeno[3,4-c]pyridine-3-carbonyl)benzamide] were 10 to 100 nM, 1 to 10 nM, 10 to 30 nM and “J (>30)”.
The matching figures for `COC[C@H]1CN(c2cc(C)c3c4c(c(=O)oc3c2C)CN(C(=O)c2ccc(C(=O)NS(=O)(=O)N3C5CCC3CC5)c(OC)c2F)CC4)CCN1C` [Example 157, (R)-N-((7-azabicyclo[2.2.1]heptan-7-yl)sulfonyl)-3-fluoro-2-methoxy-4-(8-(3-(methoxymethyl)-4-methylpiperazin-1-yl)-7,10-dimethyl-5-oxo-1,3,4,5-tetrahydro-2H-chromeno[3,4-c]pyridine-3-carbonyl)benzamide]: 100 to 1000 nM, 10 to 100 nM, 30 to 100 nM and “H (>9.0 to 30)”.
Take `COC[C@H]1CN(c2cc(C)c3c4c(c(=O)oc3c2C)CN(C(=O)c2ccc(C(=O)NS(=O)(=O)C3(C)CC3)c(N(C)C)c2F)CC4)CCN1C` [Example 136, (R)-2-(dimethylamino)-3-fluoro-4-(8-(3-(methoxymethyl)-4-methylpiperazin-1-yl)-7,10-dimethyl-5-oxo-1,3,4,5-tetrahydro-2H-chromeno[3,4-c]pyridine-3-carbonyl)-N-((1-methylcyclopropyl)sulfonyl)benzamide]: the figures for the IC50 (in test [1]; in test [2]; with human CD4+ T cells) were 100 to 1000 nM, 10 to 100 nM and 30 to 100 nM, respectively. In test [2], the “MTHFD1/MTHFD2 IC50 ratio” value is reported as “H (>9.0 to 30)”.
For the molecule `COC[C@H]1CN(c2cc(C)c3c4c(c(=O)oc3c2C)CN(C(=O)c2cc(N(C)C)c(C(=O)NS(=O)(=O)N3CC5CC5C3)cc2F)CC4)CCN1C` (stereo partly drawn) [Example 315, N-((3-azabicyclo[3.1.0]hexan-3-yl)sulfonyl)-2-(dimethylamino)-5-fluoro-4-(8-((R)-3-(methoxymethyl)-4-methylpiperazin-1-yl)-7,10-dimethyl-5-oxo-1,3,4,5-tetrahydro-2H-chromeno[3,4-c]pyridine-3-carbonyl)benzamide], the results for the IC50 (in test [1]; in test [2]; in the test on human CD4+ T cells) were 100 to 1000 nM, 1 to 10 nM and 1 to 10 nM, respectively. In test [2], the “MTHFD1/MTHFD2 IC50 ratio” value is given as “J (>30)”.
Turning to `COC[C@H]1CN(c2cc(C)c3c4c(c(=O)oc3c2C)CN(C(=O)c2cc(OC3CCCC3)c(C(=O)NS(=O)(=O)C3(C)CC3)c(C(F)(F)F)c2)CC4)CCN1C` [Example 128, (R)-2-(cyclopentyloxy)-4-(8-(3-(methoxymethyl)-4-methylpiperazin-1-yl)-7,10-dimethyl-5-oxo-1,3,4,5-tetrahydro-2H-chromeno[3,4-c]pyridine-3-carbonyl)-N-((1-methylcyclopropyl)sulfonyl)-6-(trifluoromethyl)benzamide], the IC50 in test [1] lay within 1000 to 5000 nM; in test [2], 10 to 100 nM; with human CD4+ T cells, 1000 to 5000 nM. Besides, the “MTHFD1/MTHFD2 IC50 ratio” value in test [2] is given as “H (>9.0 to 30)”.
For the molecule `CCOc1cc(C(=O)N2CCc3c(c(=O)oc4c(C)c(N5CCN(C)[C@@H](COC)C5)cc(C)c34)C2)c(Cl)cc1C(=O)NS(=O)(=O)N1CCCC1` [Example 330, (R)-5-chloro-2-ethoxy-4-(8-(3-(methoxymethyl)-4-methylpiperazin-1-yl)-7,10-dimethyl-5-oxo-1,3,4,5-tetrahydro-2H-chromeno[3,4-c]pyridine-3-carbonyl)-N-(pyrrolidin-1-ylsulfonyl)benzamide], the IC50 in test [1] lay within 100 to 1000 nM; in test [2] it was 10 to 100 nM; in the test on human CD4+ T cells, 100 to 1000 nM. For the same molecule, the “MTHFD1/MTHFD2 IC50 ratio” value in test [2] is reported as “J (>30)”.
